Test results reported in patent US20230277698A1, “SILICON-CONTAINING LIGAND COMPOUNDS” (Technische Universität München, priority 2020, published 2023).

Assays:
[1] = target: human serum albumin (HSA) (Homo sapiens, UniProt P02768); assay: HSA binding by radio inversed affinity chromatography (RIAC); type: in vitro ADME; conditions: 177Lu-labelled; Superdex 75 Increase 10/300 GL, 700 μM HSA in PBS, 0.8 mL/min
Procedure: A gel filtration column Superdex 75 Increase 10/300 GL (GE Healthcare, Uppsala, Sweden) was beforehand calibrated following the producer's recommendations with a commercially available gel filtration calibration kit (GE Healthcare, Buckinghamshire, UK) comprising conalbumin (MW: 75 kDa), ovalbumin (44 kDa), carbonic anhydrase (29 kDa), ribonuclease A (13.7 kDa) and aprotinin (6.5 kDa) as reference proteins of known molecular weight. RIAC experiments were conducted using a constant flow rate of 0.8 mL/min at rt. A solution of HSA in PBS at physiological concentration (700 μM) was used as the mobile phase. PSMA ligands were labelled as described with molar activities of 10-20 GBq/μmol. Probes of 1.0 MBq of the radioligand were injected directly from the labelling solution. HSA binding was expressed as an apparent molecular weight MW calculated from the retention time of the radioligand using the determined calibration curve.
The following table summarizes the underlying data. MW: molecular weight. tR: experimentally determined retention time. V: elution volume. Kav: partition coefficient.
RIAC, in an inversed way, comprises ligand samples (radiolabeled PSMA ligands) and a protein (HSA) containing mobile phase. Ligand-specific retention is caused by interaction of the ligand probe and HSA in the mobile phase. Unbound species, due to a molecular weight beneath the molecular cut off of the gel filtration column, are maximally retained while bound species are eluted in accordance to the higher molecular weight of the ligand-HSA-complex (MWHSA: 66.47 kDa). Experiments show a single radiopeak indicating a dynamic process of formation and dissociation of the ligand-HSA-complex throughout the passage through the column bed. Accordingly, the absolute retention time is the result of the ligand's mean time of abidance at HSA which is directly defined by the ligand's binding kinetics and affinity toward HSA. For evaluation, experimentally determined retention times tR are first converted into elution volumes Ve by multiplying with the flow rate and thereafter converted into partition coefficients Kav following the equation
where V0 is the column void volume (8.027 mL) and Vc is the geometric column volume (24 mL). Using the equation given by the trend line plot of the column calibration
the apparent molecular weight MW is calculated as
FIG. 7 and the table below show the results HSA-binding of lutetium-complexed PSMA-ligands and reference compounds determined by RIAC on a Superdex 75 Increase 10/300 GL column 700 μM HSA in PBS as solvent using a constant flow rate of 0.8 mL/min (plotted data, extracted from FIG. 8).
FIG. 8 illustrates the determination of HSA binding via radio inverse affinity chromatography (RIAC). Correlation of apparent molecular weight (MW) in Dalton (Da) and retention time of ^177Lu-labeled samples, determined on a Superdex 75 Increase 10/300 GL with 700 μM HSA in PBS as solvent using a constant flow rate of 0.8 mL/min.

[2] = tested on: LNCaP tumor-bearing CB17-SCID mice; assay: Biodistribution studies 24 h p.i.; type: in vivo; conditions: 177Lu-labelled, mean±SD, n=4-5
Procedure: All animal experiments were conducted in accordance with general animal welfare regulations in Germany (German animal protection act, as amended on 18 May 2018, Art. 141 G v. 29.3.2017|626, approval no. 55.2-1-54-2532-71-13) and the institutional guidelines for the care and use of animals. To establish tumor xenografts, LNCaP cells (approx. 10^7 cells) were suspended in 200 μL of a 1:1 mixture (v/v) of DMEM F-12 and Matrigel (BD Biosciences, Germany), and inoculated subcutaneously onto the right shoulder of 6-8 weeks old CB17-SCID mice (Charles River, Sulzfeld, Germany). Mice were used for experiments when tumors had grown to a diameter of 5-10 mm (3-6 weeks after inoculation).
Approximately 5-10 MBq (0.1-0.2 nmol) of the radioactive-labelled PSMA inhibitors were injected into the tail vein of LNCaP tumor-bearing male CB-17 SCID mice and sacrificed after 24 h post injection. Selected organs were removed, weighted and measured in a γ-counter.
FIG. 10 and the following table show the biodistribution data 24 h p.i. of ^177Lu-labeled compounds in LNCaP tumor-bearing CB17-SCID mice. Data are expressed as mean±SD (n=4-5).

Sequence of human serum albumin (HSA) (P02768 25-609): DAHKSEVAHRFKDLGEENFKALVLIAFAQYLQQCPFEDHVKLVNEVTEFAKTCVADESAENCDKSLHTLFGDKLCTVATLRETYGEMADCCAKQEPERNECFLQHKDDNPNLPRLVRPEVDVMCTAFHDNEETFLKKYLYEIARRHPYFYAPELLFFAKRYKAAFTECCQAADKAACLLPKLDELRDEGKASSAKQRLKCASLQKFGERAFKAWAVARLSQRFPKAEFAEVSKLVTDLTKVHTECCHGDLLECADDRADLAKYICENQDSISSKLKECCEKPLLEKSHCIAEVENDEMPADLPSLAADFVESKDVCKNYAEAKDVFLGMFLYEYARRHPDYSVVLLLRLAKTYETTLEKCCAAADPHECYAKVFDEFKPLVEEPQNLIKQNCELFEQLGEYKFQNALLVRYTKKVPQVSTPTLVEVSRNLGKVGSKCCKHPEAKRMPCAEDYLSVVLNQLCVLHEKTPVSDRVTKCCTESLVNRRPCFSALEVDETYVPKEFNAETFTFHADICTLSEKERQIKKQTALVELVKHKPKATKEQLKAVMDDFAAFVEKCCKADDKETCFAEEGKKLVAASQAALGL

SMILES: CC(C)(C)[Si](F)(c1ccc(C(=O)NC[C@@H](NC(=O)CN2CCN(CC(=O)O)CCN(CC(=O)O)CCN(CC(=O)O)CC2)C(=O)N[C@H](CCCCNC(=O)CCC(=O)NCCC[C@@H](NC(=O)CC[C@H](NC(=O)N[C@@H](CCC(=O)O)C(=O)O)C(=O)O)C(=O)O)C(=O)O)cc1)C(C)(C)C [rhPSMA-10, reference compound]
- HSA-binding RIAC (apparent molecular weight) [1]: 25.4 kDa
- biodistribution: tumor ([2]; LNCaP xenograft): 10.2 ± 2.8 % ID/g
- biodistribution: blood ([2]; i.v. tail vein): 0.004 ± 0.001 % ID/g
- biodistribution: adrenals [2]: 0.09 ± 0.06 % ID/g
- biodistribution: bone [2]: 0.02 ± 0.01 % ID/g
- biodistribution: heart [2]: 0.03 ± 0.01 % ID/g
- biodistribution: intestine [2]: 0.11 ± 0.06 % ID/g
- biodistribution: kidneys [2]: 4.1 ± 2.3 % ID/g
- biodistribution: liver [2]: 0.28 ± 0.13 % ID/g
- biodistribution: lung [2]: 0.05 ± 0.01 % ID/g
- biodistribution: muscle [2]: 0.010 ± 0.003 % ID/g
- biodistribution: pancreas [2]: 0.02 ± 0.01 % ID/g
- biodistribution: spleen [2]: 0.22 ± 0.11 % ID/g
- biodistribution: stomach [2]: 0.04 ± 0.01 % ID/g
